From the supplement of paper PMC13380429
± gives the standard deviation of the averaged measurements.

Columns and labels:
Settings in all cases: 72 h
U2OS [1] = experiment: cell viability relative to DMSO; higher = less toxic
Caco-2 [2] = experiment: as above
Calu-3 [3] = experiment: as above
Vero E6 [4] = experiment: as above
HepG2 [5] = experiment: as above
U2OS [6] = experiment: drug sensitivity score (DSS) for viability; higher = more toxic; extreme values may be limits of the assay
Caco-2 [7] = experiment: as above
Calu-3 [8] = experiment: as above
Vero E6 [9] = experiment: as above
HepG2 [10] = experiment: as above
U2OS [11] = experiment: relative viability EC50 (midpoint between 100% and the lowest measured viability); higher = less toxic
Caco-2 [12] = experiment: as above
Calu-3 [13] = experiment: as above
Vero E6 [14] = experiment: as above
HepG2 [15] = experiment: as above

Row | Structure (SMILES) | cell viability (U2OS [1]; 1 nM) | cell viability (U2OS [1]; 10 nM) | cell viability (U2OS [1]; 100 nM) | cell viability (U2OS [1]; 1000 nM) | cell viability (U2OS [1]; 10000 nM) | cell viability (Caco-2 [2]; 1 nM) | cell viability (Caco-2 [2]; 10 nM) | cell viability (Caco-2 [2]; 100 nM) | cell viability (Caco-2 [2]; 1000 nM) | cell viability (Caco-2 [2]; 10000 nM) | cell viability (Calu-3 [3]; 1 nM) | cell viability (Calu-3 [3]; 10 nM) | cell viability (Calu-3 [3]; 100 nM) | cell viability (Calu-3 [3]; 1000 nM) | cell viability (Calu-3 [3]; 10000 nM) | cell viability (Vero E6 [4]; 1 nM) | cell viability (Vero E6 [4]; 10 nM) | cell viability (Vero E6 [4]; 100 nM) | cell viability (Vero E6 [4]; 1000 nM) | cell viability (Vero E6 [4]; 10000 nM) | cell viability (HepG2 [5]; 1 nM) | cell viability (HepG2 [5]; 10 nM) | cell viability (HepG2 [5]; 100 nM) | cell viability (HepG2 [5]; 1000 nM) | cell viability (HepG2 [5]; 10000 nM) | drug sensitivity score (U2OS [6]) | drug sensitivity score (Caco-2 [7]) | drug sensitivity score (Calu-3 [8]) | drug sensitivity score (Vero E6 [9]) | drug sensitivity score (HepG2 [10]) | relative viability EC50 (U2OS [11]) | relative viability EC50 (Caco-2 [12]) | relative viability EC50 (Calu-3 [13]) | relative viability EC50 (Vero E6 [14]) | relative viability EC50 (HepG2 [15])
1 | CC(=O)OCC(=O)[C@H]1CC[C@H]2[C@@H]3CC[C@H]4C[C@H](O)CC[C@]4(C)[C@H]3C(=O)C[C@]12C [alfadolone-acetate] | 105% | 97.7% | 98.7% | 103% | 100% | 99.9% | 102% | 102% | 101% | 100% | 99.9% | 101% | 99.8% | 111% | 91.3% | 106% | 104% | 98.3% | 104% | 97.3% | 98.7% | 101% | 109% | 104% | 102% | 0 | 0 | 0 | 0 | 0 | > 10 µM | > 10 µM | > 10 µM | > 10 µM | > 10 µM
2 | CC(=O)[C@H]1CC[C@H]2[C@@H]3CC[C@H]4C[C@H](O)CC[C@]4(C)[C@H]3CC[C@]12C [allopregnanolone] | 98.8 ± 4.2% | 99.65 ± 0.92% | 98.55 ± 0.35% | 100 ± 5% | 97.7 ± 0.28% | 98 ± 0.85% | 96.6 ± 1.1% | 96.2 ± 8.3% | 100 ± 3% | 103 ± 7.4% | 104 ± 5.9% | 102 ± 5.4% | 95.05 ± 0.64% | 104 ± 5.8% | 103 ± 3.8% | 95.5 ± 3.5% | 101 ± 4.5% | 95 ± 3.5% | 97.9 ± 4.7% | 98.8 ± 4.5% | 98.9 ± 6.8% | 92.4 ± 6.1% | 97.6 ± 7.2% | 99 ± 2.6% | 92 ± 3.5% | 0 | 0 | 0 | 0 | 0 | > 10 µM | > 10 µM | > 10 µM | > 10 µM | > 10 µM
3 | COC(c1ccccc1)(c1ccccc1)[C@H](Oc1nc(C)cc(C)n1)C(=O)O [ambrisentan] | 101% | 101% | 94.2% | 99.5% | 95.7% | 104% | 98.2% | 95.1% | 97.1% | 90.5% | 105% | 101% | 84.6% | 88.9% | 97% | 99.9% | 99.1% | 94.4% | 97.4% | 102% | 102% | 98.4% | 95.3% | 107% | 98.3% | 0 | 0 | 2.7 | 0 | 0 | > 10 µM | > 10 µM | > 10 µM | > 10 µM | > 10 µM
4 | Cc1c(N(C)C)c(=O)n(-c2ccccc2)n1C [amidopyrine] | 95.1% | 101% | 93.2% | 99.2% | 96.4% | 102% | 106% | 97.9% | 110% | 84% | 105% | 109% | 99.5% | 112% | 103% | 97.8% | 96.4% | 104% | 97.7% | 89.2% | 94.7% | 92.2% | 112% | 106% | 99.7% | 0 | 0.1 | 0 | 0 | 0 | > 10 µM | > 10 µM | > 10 µM | > 10 µM | > 10 µM
5 | CC(CC(C(N)=O)(c1ccccc1)c1ccccc1)N(C)C (stereo not given) [aminopentamide] | 95.8% | 94.9% | 101% | 101% | 101% | 95.3% | 90.2% | 97.1% | 92.8% | 98% | 110% | 97.8% | 104% | 92.2% | 98.9% | 95.9% | 96.1% | 91.5% | 98.3% | 104% | 100% | 99.6% | 95.2% | 103% | 104% | 0 | 0 | 0 | 0 | 0 | > 10 µM | > 10 µM | > 10 µM | > 10 µM | > 10 µM
6 | CC(C)CN(C[C@@H](O)[C@H](Cc1ccccc1)NC(=O)O[C@H]1CCOC1)S(=O)(=O)c1ccc(N)cc1 [amprenavir] | 106% | 97.8% | 96.5% | 98.6% | 101% | 103% | 100% | 106% | 87.2% | 87.7% | 101% | 102% | 99.3% | 97.7% | 107% | 110% | 102% | 93.9% | 101% | 93.4% | 114% | 88.9% | 92.7% | 96.5% | 87.7% | 0 | 0.6 | 0 | 0 | 0 | > 10 µM | > 10 µM | > 10 µM | > 10 µM | > 10 µM
